From patent publication US20070203060A1, “Casein Derived Peptides And Therapeutic Uses Thereof” (priority 2004, published 2007)
“And” between values parts separate entries of the source, which are not always exact repeats. Equal values may be shown once.

What was measured:
[1] = system: Juvenile (Type I, IDDM) diabetes in NOD mice; assay: Glucosuria in Non-Obese Diabetic (NOD) mice; format: in vivo, mouse; conditions: three injections of 1 mg each, 3 days apart, at 25 weeks
Experimental: Juvenile (Type I, IDDM) diabetes in Non-Obese Diabetic (NOD) mice:
Peptides derived from natural casein: NOD mice are a commonly used model for research of autoimmune disease and human Juvenile Diabetes. Six week old female NOD mice received either one or two injections per week of 100 μg of peptides derived from natural casein, for a total of 5 or 10 treatments. Control mice received no treatment. The severity of disease was determined according to glucosuria, which was measured using Combi test sticks [Gross, D. J. et al. (1994), Diabetology, 37:1195]. Results were expressed as the percent of glucosuria-free mice in each sample over a 365-day period.
Synthetic peptides derived from casein: In another experiment, 6 week old female NOD mice received two injections per week of 100 μg of Synthetic peptides derived from casein for a total of 10 treatments, or three injections of 1 mg each, 3 days apart, for a total of 3 treatments. Control mice received no treatment. Results were expressed as the number of healthy mice in the various treated groups.

[2] = system: glucose metabolism in NOD mice; assay: Intraperitoneal Glucose Tolerance Test (IPGTT) in NOD mice; format: in vivo, mouse; conditions: NOD mice, three injections of 1 mg each, 3 days apart; 25 weeks
Experimental: Intraperitoneal Glucose Tolerance Test (IPGTT): The glucose tolerance test is the definitive method for investigating glucose metabolism and diabetic tendencies in mammals. Twenty five (25) weeks after receiving Synthetic peptides derived from casein, response to a glucose load was assessed with an intraperitoneal glucose tolerance test. Glucose injection consisted of 1 g/kg body weight. Glycemic values were determined from blood drawn prior to test (0 minutes) and 60 minutes after loading.

[3] = system: peripheral white blood cells of myeloablated, bone marrow transplanted mice; assay: Leukocyte reconstitution in irradiated bone marrow transplant recipient mice; format: in vivo, mouse; conditions: BALB/c, 600 cGy, 1 mg per mouse i.p.
[4] = system: murine primary bone marrow cells (CFU-GEMM); assay: Multipotential colonies (CFU-GEMM) from murine bone marrow cells, colony and differential counts; format: cell-based, mouse; conditions: 8 days treatment
Experimental: Proliferation of megakaryocytes in multipotential colonies (CFU-GEMM) from murine Bone Marrow cells: Primary bone marrow cells (1×10^5 per ml) from 8-12 week-old C3H/HeJ mice were grown in serum-free methyl cellulose-IMDM medium for 8-9 days at 5% CO2, 95% air, at 37° C. The medium, appropriate for the growth of multipotential colonies (CFU-GEMM), contained 1% BSA (Sigma), 10^−4 M thioglycerol (Sigma), 2.8×10^−4 M human transferrin (TF, Biological industries, Israel), 10% WEHI-CM as a source of IL-3 and 2 units per ml erythropoietin (rhEPO, R & D Systems, Minneapolis). […] They were picked with a micropipette, cytocentrifuged and stained with May-Grunwald-Giemsa for differential counts. At least 700 cells were counted for each preparation. […]

Sequence	mice in which no glucosuria was detected [1]	blood glucose values in response to a glucose load (IPTG test) [2]	peripheral white blood cell count ([3]; day 10)	peripheral white blood cell count ([3]; day 12)	megakaryocyte formation and development (in words) [4]
RPKHPIKHQGLPQEV [C]	3 out of 5	101 and 113 and 102	1.72 ×10^6 cells per ml	6.54 ×10^6 cells per ml	
RPKHPIKHQGLPQEVLNEN	two out of 5	< 120			significant increase
